Data reported in patent publication US20230278972A1, “SUBSTITUTED HALOALKYL SULFONANILIDE HERBICIDES” (FMC Corporation, priority 2020, published 2023).

Assays:
Assay type in all cases: in vivo
[1] = tested on: blackgrass (Alopecurus myosuroides); assay: Test A1 preemergence, blackgrass
Excerpt: (§1) Seeds of plant species selected from, blackgrass (Alopecurus myosuroides), corn (Zea mays), Foxtail, Giant (giant foxtail, Setaria faberi), goosegrass (Eleusine indica), kochia (Bassia scoparia), Oat, Wild (wild oat, Avena fatua), Pigweed, Palmer (palmer amaranth, palmer pigweed, Amaranthus palmeri), ragweed (common ragweed, Ambrosia artemisiifolia), Ryegrass, Italian (Italian ryegrass, Lolium multiflorum), soybean (Glycine max), and wheat (Triticum aestivum) were planted into a blend of loam soil and sand and treated preemergence with a directed soil spray using test chemicals formulated in a non-phytotoxic solvent mixture which included a surfactant. At the same time, plants selected from these crop and weed species and also galium (catchweed bedstraw, Galium aparine) and horseweed (Erigeron canadensis) were planted in pots containing the same blend of loam soil and sand and treated with postemergence applications of test chemicals formulated in the same manner. Plants ranged in height from 2 to 10 cm and were in the one- to two-leaf stage for the postemergence treatment. […] A dash (-) response means no test result.

corn (Zea mays) [2] = assay: Test A1 preemergence, corn
Excerpt: as §1

[3] = tested on: Foxtail, Giant (giant foxtail, Setaria faberi); assay: Test A1 preemergence, Foxtail, Giant
Excerpt: as §1

[4] = tested on: goosegrass (Eleusine indica); assay: Test A1 preemergence, goosegrass
Excerpt: as §1

kochia (Bassia scoparia) [5] = assay: Test A1 preemergence, kochia
Excerpt: as §1

[6] = tested on: Oat, Wild (wild oat, Avena fatua); assay: Test A1 preemergence, Oat, Wild
Excerpt: as §1

[7] = tested on: Pigweed, Palmer (palmer amaranth, palmer pigweed, Amaranthus palmeri); assay: Test A1 preemergence, Pigweed, Palmer
Excerpt: as §1

[8] = tested on: ragweed (common ragweed, Ambrosia artemisiifolia); assay: Test A1 preemergence, ragweed
Excerpt: as §1

[9] = tested on: Ryegrass, Italian (Italian ryegrass, Lolium multiflorum); assay: Test A1 preemergence, Ryegrass, Italian
Excerpt: as §1

soybean (Glycine max) [10] = assay: Test A1 preemergence, soybean
Excerpt: as §1

[11] = tested on: wheat (Triticum aestivum); assay: Test A1 preemergence, wheat
Excerpt: as §1

[12] = tested on: blackgrass (Alopecurus myosuroides); assay: Test A1 postemergence, blackgrass; details: Postemergence, 0 to 100 scale (0 no effect, 100 complete control)
Excerpt: as §1

corn (Zea mays) [13] = assay: Test A1 postemergence, corn; details: Postemergence
Excerpt: as §1

[14] = tested on: Foxtail, Giant (giant foxtail, Setaria faberi); assay: Test A1 postemergence, Foxtail, Giant; details: Postemergence
Excerpt: as §1

[15] = tested on: goosegrass (Eleusine indica); assay: Test A1 postemergence, goosegrass; details: Postemergence
Excerpt: as §1

kochia (Bassia scoparia) [16] = assay: Test A1 postemergence, kochia; details: Postemergence
Excerpt: as §1

[17] = tested on: Oat, Wild (wild oat, Avena fatua); assay: Test A1 postemergence, Oat, Wild; details: Postemergence
Excerpt: as §1

[18] = tested on: Pigweed, Palmer (palmer amaranth, palmer pigweed, Amaranthus palmeri); assay: Test A1 postemergence, Pigweed, Palmer; details: Postemergence
Excerpt: as §1

[19] = tested on: ragweed (common ragweed, Ambrosia artemisiifolia); assay: Test A1 postemergence, ragweed; details: Postemergence
Excerpt: as §1

[20] = tested on: Ryegrass, Italian (Italian ryegrass, Lolium multiflorum); assay: Test A1 postemergence, Ryegrass, Italian; details: Postemergence
Excerpt: as §1

soybean (Glycine max) [21] = assay: Test A1 postemergence, soybean; details: Postemergence
Excerpt: as §1

[22] = tested on: wheat (Triticum aestivum); assay: Test A1 postemergence, wheat; details: Postemergence
Excerpt: as §1

[23] = tested on: galium (catchweed bedstraw, Galium aparine); assay: Test A1 postemergence, galium; details: Postemergence
Excerpt: as §1

[24] = tested on: horseweed (Erigeron canadensis); assay: Test A1 postemergence, horseweed; details: Postemergence
Excerpt: as §1

[25] = tested on: barnyardgrass (Echinochloa crus-galli); assay: Test B1 flooded paddy test, barnyardgrass; details: 250 g ai/ha, Flood, applied to paddy water, 2-leaf stage, visually evaluated after 10 to 14 days
Excerpt: (§2) A dash (-) response means no test result.

[26] = tested on: ducksalad (Heteranthera limosa); assay: Test B1 flooded paddy test, ducksalad; details: 250 g ai/ha, Flood, applied to paddy water, 2-leaf stage, visually evaluated after 10 to 14 days
Excerpt: as §2

rice (Oryza sativa) = assay: Test B1 flooded paddy test, rice; details: 250 g ai/ha, Flood, applied to paddy water, 2-leaf stage, visually evaluated after 10 to 14 days
Excerpt: as §2

[27] = 31 g ai/ha, 0 to 100 scale (0 no effect, 100 complete control)
[28] = 125 g ai/ha, 0 to 100 scale, 0 no effect, 100 complete control
[29] = 31 g ai/ha, 0 to 100 scale (0 no effect, 100 complete control), 10 days

Cc1cc(C)c(N(S(=O)(=O)C(F)(F)F)S(=O)(=O)C(F)(F)F)cc1C1=NOC2COCC12 (stereo not drawn) [Compound 296]
70: Plant response rating, Corn (corn (Zea mays) [2]; [28]) | Plant response rating, Horseweed [24, 29]
0: Plant response rating, Corn (corn (Zea mays) [2]; [27]) | Plant response rating, Oat, Wild [6, 27] | Plant response rating, Ryegrass, Italian [9, 27] | Plant response rating, Blackgrass ([12]; 31 g ai/ha, 10 days) | Plant response rating, Blackgrass ([12]; 125 g ai/ha) | Plant response rating, Corn (corn (Zea mays) [13]; [29]) | Plant response rating, Corn (corn (Zea mays) [13]; 125 g ai/ha, 0 to 100 scale) | Plant response rating, Foxtail, Giant [14, 29] | Plant response rating, Oat, Wild [17, 29] | Plant response rating, Pigweed, Palmer [18, 29] | Plant response rating, Ryegrass, Italian [20, 29] | Plant response rating, Wheat [22, 29] | Plant response rating, Rice (0 to 100 scale, 0 is no effect, 100 is complete control) (rice (Oryza sativa))
30: Plant response rating, Foxtail, Giant [3, 27] | Plant response rating, Soybean (soybean (Glycine max) [10]; [28]) | Plant response rating, Ragweed ([19]; 125 g ai/ha, 0 to 100 scale) | Plant response rating, Soybean (soybean (Glycine max) [21]; [29]) | Plant response rating, Wheat ([22]; 125 g ai/ha, 0 to 100 scale) | Plant response rating, Barnyardgrass (0 to 100 scale, 0 is no effect, 100 is complete control) [25]
90: Plant response rating, Goosegrass [4, 28] | Plant response rating, Kochia (kochia (Bassia scoparia) [5]; [28]) | Plant response rating, Ragweed [8, 28] | Plant response rating, Ryegrass, Italian [9, 28] | Plant response rating, Wheat [11, 28]
60: Plant response rating, Blackgrass [1, 28] | Plant response rating, Kochia (kochia (Bassia scoparia) [5]; [27]) | Plant response rating, Goosegrass ([15]; 125 g ai/ha, 0 to 100 scale)
40: Plant response rating, Goosegrass [4, 27] | Plant response rating, Kochia (kochia (Bassia scoparia) [16]; 125 g ai/ha, 0 to 100 scale) | Plant response rating, Ryegrass, Italian ([20]; 125 g ai/ha, 0 to 100 scale) | Plant response rating, Soybean (soybean (Glycine max) [21]; 125 g ai/ha, 0 to 100 scale)
100: Plant response rating, Foxtail, Giant [3, 28]
50: Plant response rating, Ragweed [8, 27] | Plant response rating, Galium [23, 29]
80: Plant response rating, Pigweed, Palmer [7, 28] | Plant response rating, Galium ([23]; 125 g ai/ha, 0 to 100 scale) | Plant response rating, Horseweed ([24]; 125 g ai/ha, 0 to 100 scale)
20: Plant response rating, Soybean (soybean (Glycine max) [10]; [27]) | Plant response rating, Goosegrass [15, 29] | Plant response rating, Kochia (kochia (Bassia scoparia) [16]; [29]) | Plant response rating, Pigweed, Palmer ([18]; 125 g ai/ha, 0 to 100 scale) | Plant response rating, Ragweed [19, 29] | Plant response rating, Ducksalad (0 to 100 scale, 0 is no effect, 100 is complete control) [26]
10: Plant response rating, Blackgrass [1, 27] | Plant response rating, Oat, Wild [6, 28] | Plant response rating, Pigweed, Palmer [7, 27] | Plant response rating, Wheat [11, 27] | Plant response rating, Foxtail, Giant ([14]; 125 g ai/ha, 0 to 100 scale) | Plant response rating, Oat, Wild ([17]; 125 g ai/ha, 0 to 100 scale)

Cc1cc(C(F)(F)F)c(C2=NOC3CCCC23)cc1NS(=O)(=O)C(F)(F)F (stereo not drawn) [Compound 306]
40: Plant response rating, Pigweed, Palmer ([18]; 125 g ai/ha, 0 to 100 scale) | Plant response rating, Soybean (soybean (Glycine max) [21]; 125 g ai/ha, 0 to 100 scale) | Plant response rating, Horseweed ([24]; 125 g ai/ha, 0 to 100 scale)
10: Plant response rating, Oat, Wild [6, 28] | Plant response rating, Ragweed [8, 28] | Plant response rating, Ryegrass, Italian ([20]; 125 g ai/ha, 0 to 100 scale)
20: Plant response rating, Foxtail, Giant [3, 28] | Plant response rating, Kochia (kochia (Bassia scoparia) [16]; 125 g ai/ha, 0 to 100 scale) | Plant response rating, Oat, Wild ([17]; 125 g ai/ha, 0 to 100 scale) | Plant response rating, Soybean (soybean (Glycine max) [21]; [29]) | Plant response rating, Wheat ([22]; 125 g ai/ha, 0 to 100 scale)
80: Plant response rating, Ryegrass, Italian [9, 28] | Plant response rating, Goosegrass ([15]; 125 g ai/ha, 0 to 100 scale) | Plant response rating, Galium ([23]; 125 g ai/ha, 0 to 100 scale)
30: Plant response rating, Kochia (kochia (Bassia scoparia) [5]; [28]) | Plant response rating, Foxtail, Giant ([14]; 125 g ai/ha, 0 to 100 scale)
60: Plant response rating, Galium [23, 29]
70: Plant response rating, Ragweed ([19]; 125 g ai/ha, 0 to 100 scale)
85: Plant response rating, Ducksalad (0 to 100 scale, 0 is no effect, 100 is complete control) [26]
50: Plant response rating, Goosegrass [4, 27] | Plant response rating, Pigweed, Palmer [7, 27]
0: Plant response rating, Blackgrass [1, 27] | Plant response rating, Blackgrass [1, 28] | Plant response rating, Corn (corn (Zea mays) [2]; [27]) | Plant response rating, Corn (corn (Zea mays) [2]; [28]) | Plant response rating, Foxtail, Giant [3, 27] | Plant response rating, Kochia (kochia (Bassia scoparia) [5]; [27]) | Plant response rating, Oat, Wild [6, 27] | Plant response rating, Ragweed [8, 27] | Plant response rating, Ryegrass, Italian [9, 27] | Plant response rating, Soybean (soybean (Glycine max) [10]; [27]) | Plant response rating, Soybean (soybean (Glycine max) [10]; [28]) | Plant response rating, Wheat [11, 27] | Plant response rating, Wheat [11, 28] | Plant response rating, Blackgrass ([12]; 31 g ai/ha, 10 days) | Plant response rating, Blackgrass ([12]; 125 g ai/ha) | Plant response rating, Corn (corn (Zea mays) [13]; [29]) | Plant response rating, Corn (corn (Zea mays) [13]; 125 g ai/ha, 0 to 100 scale) | Plant response rating, Foxtail, Giant [14, 29] | Plant response rating, Goosegrass [15, 29] | Plant response rating, Kochia (kochia (Bassia scoparia) [16]; [29]) | Plant response rating, Oat, Wild [17, 29] | Plant response rating, Pigweed, Palmer [18, 29] | Plant response rating, Ragweed [19, 29] | Plant response rating, Ryegrass, Italian [20, 29] | Plant response rating, Wheat [22, 29] | Plant response rating, Horseweed [24, 29] | Plant response rating, Barnyardgrass (0 to 100 scale, 0 is no effect, 100 is complete control) [25] | Plant response rating, Rice (0 to 100 scale, 0 is no effect, 100 is complete control) (rice (Oryza sativa))
100: Plant response rating, Goosegrass [4, 28] | Plant response rating, Pigweed, Palmer [7, 28]
